Measured values: patent US7695899B2, “Methods of identifying and using chemotherapeutic agents” (The Regents of the University of Colorado, a body corporate, priority 2003, dated 2010)

Tested on: irradiated grp mutant larvae
Assay: Survival screen of irradiated and non-irradiated grp mutant and wild-type larvae
Format: in vivo, Drosophila melanogaster
Conditions: colchicine 1.3 μM in cornmeal-agar food; 4,000 Rads of X-rays; cumulative results of three screens; FIG. 1
Experimental: To obtain correctly aged larvae, embryos are collected at Day 0 from wild-type and grp mutant heterozygous adults for approximately 4 hours in the late afternoon or early evening 4 days prior to experiment. The embryos are allowed to hatch into larvae and the larvae are allowed to develop. The grp mutant heterozygote adults carry a grp mutation on one chromosome and a wild-type grp gene on a balancer chromosome. The balancer chromosome also carries a Green Fluorescent Protein (GFP) transgene.
In the morning of Day 4, food is washed from larvae by using stacked sieves (VWR; USA Standard Testing Sieve: 850, 600, 425, 180 micrometer). […]
At Day 9, the total number of pupae formed are counted (this gives the percentage of larvae that survived into pupae). In the vials with progeny from grp heterozygous parents, the grp heterozygous pupae and the wild-type pupae are identified by virtue of their expression of GFP and are not counted. At Day 14, the number of empty pupae are counted (indicating the number of pupae that eclosed into adults).
Survival is expressed as the percentage of larvae that form pupae, and the percentage of pupae that eclose into adults. […]

`COc1cc2c(c(OC)c1OC)-c1ccc(OC)c(=O)cc1[C@@H](NC(C)=O)CC2` [colchicine] was tested, and the “survival of irradiated grp mutant larvae (grp+R) relative to non-irradiated grp mutant larvae (grp-R), wild-type irradiated larvae (SEV+R) and wild-type non-irradiated larvae (SEV-R)” value was “selectively reduces the survival”.
